Source: US12344623B2, “Thiazolopyridine derivatives as adenosine receptor antagonists” (Merck Patent GmbH, priority 2019, dated 2025)

Legend:
Assay type in all cases: cell-based
human A2B receptor = molecular target: T1, human A2B receptor (Homo sapiens, UniProt P29275); test: Functional A2B receptor activity, recombinant HEK293 cells, cAMP (HTRF), agonist NECA; conditions: read-out: Functional A2B receptor activity, HEK293, cAMP, IC50
T1 construct: expressed in transfected cells; host or cells: HEK293
T1 sequence (P29275 1-332): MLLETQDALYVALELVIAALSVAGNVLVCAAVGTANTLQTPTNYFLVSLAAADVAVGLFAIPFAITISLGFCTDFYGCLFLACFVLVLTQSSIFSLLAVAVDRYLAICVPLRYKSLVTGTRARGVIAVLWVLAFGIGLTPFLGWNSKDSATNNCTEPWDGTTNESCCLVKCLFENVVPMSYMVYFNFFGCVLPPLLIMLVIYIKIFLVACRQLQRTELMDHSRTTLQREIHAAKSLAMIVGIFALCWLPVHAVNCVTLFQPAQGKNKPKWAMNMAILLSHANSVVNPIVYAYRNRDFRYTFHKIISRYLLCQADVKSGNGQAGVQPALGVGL
Method in brief: (§1)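 cAMP readout by HTRF after 30 min exposure of cells to forskolin, compound and agonist; data normalized vs inhibitor ctrl and DMSO (neutral) ctrl, then fitted.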

human A1 receptor = molecular target: T2, human A1 receptor (Homo sapiens, UniProt P30542); test: Functional A1 receptor activity, recombinant CHO cells, cAMP (HTRF), forskolin, agonist CPA; conditions: recombinant CHO cells, forskolin, agonist CPA; read-out: Functional A1 receptor activity, CHO, cAMP, IC50
T2 construct: expressed in transfected cells; host or cells: CHO
T2 sequence (P30542 1-326): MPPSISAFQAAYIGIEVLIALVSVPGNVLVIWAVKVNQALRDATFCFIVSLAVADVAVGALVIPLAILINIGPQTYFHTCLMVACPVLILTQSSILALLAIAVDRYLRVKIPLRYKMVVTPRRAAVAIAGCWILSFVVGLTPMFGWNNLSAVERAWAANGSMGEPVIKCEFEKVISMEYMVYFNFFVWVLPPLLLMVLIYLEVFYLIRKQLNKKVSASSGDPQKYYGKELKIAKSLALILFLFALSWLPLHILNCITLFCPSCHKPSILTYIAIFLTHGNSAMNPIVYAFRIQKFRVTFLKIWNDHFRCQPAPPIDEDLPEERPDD
Method in brief: (§2)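 CHO cells (hA1 or hA3) + forskolin + test cpd + agonist (CPA/A1, IB-MECA/A3), 30 min; HTRF cAMP readout; normalized vs inhibitor and DMSO controls, curve fit.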

human A3 receptor = molecular target: T3, human A3 receptor (Homo sapiens, UniProt P0DMS8); test: Functional A3 receptor activity, recombinant CHO cells, cAMP (HTRF), forskolin, agonist IB-MECA; conditions: recombinant CHO cells, forskolin, agonist IB-MECA; read-out: Functional A3 receptor activity, CHO, cAMP, IC50
T3 construct: expressed in transfected cells; host or cells: CHO
T3 sequence (P0DMS8 1-318): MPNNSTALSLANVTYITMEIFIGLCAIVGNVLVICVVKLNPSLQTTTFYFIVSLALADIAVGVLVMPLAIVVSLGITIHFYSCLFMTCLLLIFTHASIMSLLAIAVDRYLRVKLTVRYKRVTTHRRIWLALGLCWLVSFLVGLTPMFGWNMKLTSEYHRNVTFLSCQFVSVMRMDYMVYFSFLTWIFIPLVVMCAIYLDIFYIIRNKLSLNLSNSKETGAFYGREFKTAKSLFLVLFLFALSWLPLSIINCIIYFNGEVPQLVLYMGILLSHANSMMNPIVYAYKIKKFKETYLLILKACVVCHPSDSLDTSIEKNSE
Method in brief: as §2

mouse Pan T cells = test: mTcell assay, cAMP, agonist NECA; conditions: Mus musculus, T-cell
Description: Adenosine (Ado) in tumor microenvironment can inhibit T cell activity by signaling through A2A receptors and suppress cytokine secretion by T cells. […] Potential A2A antagonists or A2A/A2B dual antagonists can rescue T cells from this inhibition. Herein, we describe the in vitro system we established using Pan T cells from mouse spleens to screen potential A2A antagonists or A2A/A2B dual antagonists for their activity. The method described involves the use of CD3/CD28 pre-coated beads to stimulate Pan T cells purified from mouse splenocytes, combined with the addition of A2A agonist along with potential A2A or A2A/A2B dual antagonists to evaluate potentiation of T cell cytokine production.
Pan T-cells are isolated from black 6 mice by manual dissociation and purified using a Miltenyi Pan T-cell isolation kit. The isolated T-cells are activated in 96 well plates for 48 hours using anti-CD3/CD28 beads in T-cell proliferation media.
After 48 hours, the T-cells are pooled, counted and suspended in serum free media containing 0.1% BSA. The cells are plated at 50,000 cells per well in 10 ul of media and incubated for 2 hours at 37° C. Test compounds are dispensed into the wells at a 10-point dose response, starting at a concentration of 10 uM. […] The plates are incubated for 30 minutes at 37° C. and assayed for cAMP levels using the Cisbio cAMP Dynamic2 reagent kit by adding 10 ul of the kit reagents to each well. The plates are incubated for 1 hour at room temperature and the HTRF signal is read on an Envision plate reader. The raw data is analyzed in Genedata Screener and the resulting data is loaded into the database.

human A2A receptor [1] = molecular target: T4, human A2A receptor (Homo sapiens, UniProt P29274); test: Human T cells, endogenous A2A receptor, cAMP, agonist NECA; conditions: read-out: hTcell data, cAMP, IC50
T4 sequence (P29274 whole entry): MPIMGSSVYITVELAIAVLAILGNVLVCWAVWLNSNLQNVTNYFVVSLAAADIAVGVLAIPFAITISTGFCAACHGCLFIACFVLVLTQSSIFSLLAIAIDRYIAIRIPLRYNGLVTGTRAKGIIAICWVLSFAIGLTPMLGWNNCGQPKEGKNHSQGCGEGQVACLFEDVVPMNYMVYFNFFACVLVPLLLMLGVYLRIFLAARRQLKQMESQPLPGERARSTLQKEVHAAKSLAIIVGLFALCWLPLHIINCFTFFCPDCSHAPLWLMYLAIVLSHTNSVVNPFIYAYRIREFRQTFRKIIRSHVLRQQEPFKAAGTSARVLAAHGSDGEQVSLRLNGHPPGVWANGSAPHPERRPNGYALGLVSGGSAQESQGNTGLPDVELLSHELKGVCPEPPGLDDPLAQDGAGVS
Protocol: The endogenous functional activity of the Gs-coupled human A2A receptor was measured in T cells, where this receptor is highly expressed. Determination of receptor activity was done by quantification of cAMP, which is a second messenger for adenosine receptors.
In short, human pan T cells were isolated from human PBMC (MACS Pan T Cell Isolation Kit, Miltenyi Biotec) that have been derived from fresh whole blood. The T cells were seeded in 384-well microtiter plates and treated with test compounds. […] Finally, HTRF reagents (cAMP Femto Kit, CisBio) were added to the wells, and after 1 h cellular cAMP levels were determined using the ENVISION (Perkin Elmer) plate reader.
The obtained raw data were normalized against the inhibitor control and the neutral control (DMSO) and the normalized data were fitted using Genedata Screener software.

human A2A receptor [2] = molecular target: T4, human A2A receptor; test: Functional A2A receptor activity, recombinant HEK293 cells, cAMP (HTRF), agonist NECA; design: expressed in transfected cells; host or cells: HEK293; conditions: read-out: Functional A2A receptor activity, HEK293, cAMP, IC50
Method in brief: as §1

| SMILES | IC50 (human A2B receptor) | IC50 (human A1 receptor) | IC50 (human A3 receptor) | IC50 (mouse Pan T cells) | IC50 (human A2A receptor [1]) | IC50 (human A2A receptor [2]) |
| --- | --- | --- | --- | --- | --- | --- |
| COc1ncc(-c2ccccc2)c2sc(NC(=O)N3CC[C@H](CN)C3)nc12 [Compound 1, (R)-3-Aminomethyl-pyrrolidine-1-carboxylic acid (4-methoxy-7-phenyl-thiazolo[4,5-c]pyridin-2-yl)-amide] | < 100 nM | > 1000 nM | > 1000 nM | < 100 nM | < 10 nM | < 10 nM |
| COc1ncc(-c2ccccc2)c2sc(NC(=O)N3CC[C@@H](CN)C3)nc12 [Compound 3, (S)-3-Aminomethyl-pyrrolidine-1-carboxylic acid (4-methoxy-7-phenyl-thiazolo[4,5-c]pyridin-2-yl)-amide] | < 10 nM | < 1000 nM | > 1000 nM | < 10 nM | < 10 nM | < 10 nM |
| COc1nc(F)c(N2CCOCC2)c2sc(NC(=O)N3CCC4(CCCOC4)C3)nc12 (centres unmarked) [Compound 7, 7-Oxa-2-aza-spiro[4.5]decane-2-carboxylic acid (6-fluoro-4-methoxy-7-morpholin-4-yl-thiazolo[4,5-c]pyridin-2-yl)-amide] | < 10 nM | > 1000 nM | > 1000 nM | < 10 nM | < 10 nM | < 10 nM |
| COc1nc(F)c(N2CCOCC2)c2sc(NC(=O)N3CC[C@]4(CCCOC4)C3)nc12 [Compound 10, (R)-7-Oxa-2-aza-spiro[4.5]decane-2-carboxylic acid (6-fluoro-4-methoxy-7-morpholin-4-yl-thiazolo[4,5-c]pyridin-2-yl)-amide] | < 100 nM | > 1000 nM | > 1000 nM | < 10 nM | < 10 nM | < 10 nM |
| COc1nc(F)c(-c2ccccc2)c2sc(NC(=O)N3CC[C@@]4(CCCOC4)C3)nc12 [Compound 13, (5S)-N-{6-fluoro-4-methoxy-7-phenyl-[1,3]thiazolo[4,5-c]pyridin-2-yl}-7-oxa-2-azaspiro[4.5]decane-2-carboxamide] | < 10 nM | < 1000 nM | > 1000 nM | < 10 nM | < 10 nM | < 10 nM |
| COc1nc(F)c(C2CCOCC2)c2sc(NC(=O)N3CCC4(CCCOC4)C3)nc12 (centres unmarked) [Compound 31, 7-Oxa-2-aza-spiro[4.5]decane-2-carboxylic acid [6-fluoro-4-methoxy-7-(tetrahydro-pyran-4-yl)-thiazolo[4,5-c]pyridin-2-yl]-amide] | < 100 nM | > 1000 nM | > 1000 nM | < 10 nM | < 10 nM | < 10 nM |
| COc1nc(F)c(C2CCOCC2)c2sc(NC(=O)c3ccc(C(=O)N(C)CCO)cc3)nc12 [Compound 50, N-[6-Fluoro-4-methoxy-7-(tetrahydro-pyran-4-yl)-thiazolo[4,5-c]pyridin-2-yl]-N′-(2-hydroxy-ethyl)-N′-methyl-terephthalamide] | < 10 nM | > 1000 nM | > 1000 nM | < 100 nM | < 10 nM | < 10 nM |
| COc1ncc(-c2ccccc2)c2sc(NC(=O)N3CCC(N4C(=O)CCC4=O)CC3)nc12 [Compound 99, 4-(2,5-Dioxo-pyrrolidin-1-yl)-piperidine-1-carboxylic acid (4-methoxy-7-phenyl-thiazolo[4,5-c]pyridin-2-yl)-amide] | < 10 nM | > 1000 nM | > 1000 nM | < 100 nM | < 100 nM | < 10 nM |
| COc1ncc([C@H]2COCCO2)c2sc(NC(=O)N3CCC4(CCOCC4)C3)nc12 [Compound 152, 8-Oxa-2-aza-spiro[4.5]decane-2-carboxylic acid ((S)-7-[1,4]dioxan-2-yl-4-methoxy-thiazolo[4,5-c]pyridin-2-yl)-amide] |  |  |  | < 100 nM | < 10 nM |  |

The remaining lines, values ahead:

| IC50 (human A2B receptor) | IC50 (human A1 receptor) | IC50 (human A3 receptor) | IC50 (mouse Pan T cells) | IC50 (human A2A receptor [1]) | IC50 (human A2A receptor [2]) | SMILES |
| --- | --- | --- | --- | --- | --- | --- |
| < 10 nM | > 1000 nM | > 1000 nM | < 100 nM | < 100 nM | < 10 nM | COc1ncc(-c2ccco2)c2sc(NC(=O)N3CCC4(CCOCC4)C3)nc12 [Compound 48, 8-Oxa-2-aza-spiro[4.5]decane-2-carboxylic acid (7-furan-2-yl-4-methoxy-thiazolo[4,5-c]pyridin-2-yl)-amide] |
| < 100 nM | > 1000 nM | > 1000 nM | < 100 nM | < 10 nM | < 10 nM | COc1ncc(C2=CCOCC2)c2sc(NC(=O)N3CCC4(CCNCC4)C3)nc12 [Compound 98, 2,8-Diaza-spiro[4.5]decane-2-carboxylic acid [7-(3,6-dihydro-2H-pyran-4-yl)-4-methoxy-thiazolo[4,5-c]pyridin-2-yl]-amide] |
| < 10 nM | < 1000 nM | > 1000 nM | < 100 nM | < 10 nM | < 10 nM | COc1ncc(C2=CCOCC2)c2sc(NC(=O)N3CCC(N4C(=O)CCC4=O)CC3)nc12 [Compound 100, 4-(2,5-Dioxo-pyrrolidin-1-yl)-piperidine-1-carboxylic acid [7-(3,6-dihydro-2H-pyran-4-yl)-4-methoxy-thiazolo[4,5-c]pyridin-2-yl]-amide] |
| < 100 nM | > 1000 nM | > 1000 nM | < 10 nM | < 10 nM | < 10 nM | COc1ncc(C2=CCOCC2)c2sc(NC(=O)N3CCC4(CCCNC4)C3)nc12 (centres unmarked) [Compound 102, 2,7-Diaza-spiro[4.5]decane-2-carboxylic acid [7-(3,6-dihydro-2H-pyran-4-yl)-4-methoxy-thiazolo[4,5-c]pyridin-2-yl]-amide] |
| < 100 nM | > 1000 nM | > 1000 nM | < 10 nM | < 10 nM | < 10 nM | CNc1cccc(-c2cnc(OC)c3nc(NC(=O)N4CCC5(CCOCC5)C4)sc23)c1 [Compound 112, 8-Oxa-2-aza-spiro[4.5]decane-2-carboxylic acid [4-methoxy-7-(3-methylamino-phenyl)-thiazolo[4,5-c]pyridin-2-yl]-amide] |
